Reference: patent US9765091B2, “Tetrahydropyrazolo [3,4-b] azepine derivatives and their use as allosteric modulators of metabotropic glutamate receptors” (Addex Pharma S.A., priority 2010, dated 2017)

Columns and labels:
human mGluR4 = target: T1, human mGluR4 (Homo sapiens, UniProt Q14833); test: Fluorescent cell based Ca2+ mobilization assay (FLIPR) on HEK-293 cells expressing human mGluR4; conditions: positive allosteric modulation, HEK-293 cells expressing hmGluR4, stimulated by EC25 glutamate; mean of at least three independent experiments in duplicate; read-out: Ca^2+ Flux* (mean EC50)
T1 construct: expressed in transfected cells
From the text: mGluR4 Assay on HEK-Expressing Human mGluR4
The compounds of the present invention are positive allosteric modulators of mGluR4 receptor. Their activity was examined on recombinant human mGluR4a receptors by detecting changes in intracellular Ca^2+ concentration, using the fluorescent Ca^2+-sensitive dye Fluo4-(AM) and a Fluorometric Imaging Plate Reader (FLIPR, Molecular Devices, Sunnyvale, Calif.).
The cDNA encoding the human metabotropic glutamate receptor (hmGluR4), (accession number NM_000841.1, NCBI Nucleotide database browser), was subcloned into an expression vector containing also the hygromycin resistance gene. In parallel, the cDNA encoding a G protein allowing redirection of the activation signal to intracellular calcium flux was subcloned into a different expression vector containing also the puromycin resistance gene. Transfection of both these vectors into HEK293 cells with PolyFect reagent (Qiagen) according to supplier's protocol, and hygromycin and puromycin treatment allowed selection of antibiotic resistant cells which had integrated stably one or more copies of the plasmids. Positive cellular clones expressing hmGluR4 were identified in a functional assay measuring changes in calcium fluxes in response to glutamate or selective known mGluR4 orthosteric agonists and antagonists. HEK-293 cells expressing hmGluR4 were maintained in media containing DMEM, dialyzed Fetal Calf Serum (10%), Glutamax™ (2 mM), Penicillin (100 units/mL), Streptomycin (100 μg/mL), Geneticin (100 μg/mL) and Hygromycin-B (40 μg/mL) and puromycin (1 μg/mL) at 37° C./5% CO2.
Human mGluR4 HEK-293 cells were plated out 24 hours prior to FLIPR^384 assay in black-walled, clear-bottomed, poly-L-ornithine-coated 384-well plates at a density of 25,000 cells/well in a glutamine/glutamate free DMEM medium containing foetal bovine serum (10%), penicillin (100 units/mL) and streptomycin (100 μg/mL) at 37° C./5% CO2.
On the day of the assay, the medium was aspirated and the cells were loaded with a 3 μM solution of Fluo4-AM (LuBioScience, Lucerne, Switzerland) in 0.03% pluronic acid. After 1 hour at 37° C./5% CO2, the non incorporated dye was removed by washing cell plate with the assay buffer and the cells were left in the dark at room temperature for […] before testing. All assays were performed in a pH 7.4 buffered-solution containing 20 mM HEPES, 143 mM NaCl, 6 mM KCl, 1 mM MgSO4, 1 mM CaCl2, 0.125 mM sulfapyrazone and 0.1% glucose.
After 10 s of basal fluorescence recording, various concentrations of the compounds of the invention were added to the cells. Changes in fluorescence levels were first monitored for 180 s in order to detect any agonist activity of the compounds. Then the cells were stimulated by an EC25 glutamate concentration for an additional 110 s in order to measure enhancing activities of the compounds of the invention. EC25 glutamate concentration is the concentration giving 25% of the maximal glutamate response.
The concentration-response curves of representative compounds of the present invention were generated using the Prism GraphPad software (Graph Pad Inc, San Diego, USA). The curves were fitted to a four-parameter logistic equation: (Y=Bottom+(Top−Bottom)/(1+10^((Log EC50−X)*Hill Slope) allowing the determination of EC50 values.
The Table 4 below represents the mean EC50 obtained from at least three independent experiments of selected molecules performed in duplicate.

T1 sequence (Q14833 33-912): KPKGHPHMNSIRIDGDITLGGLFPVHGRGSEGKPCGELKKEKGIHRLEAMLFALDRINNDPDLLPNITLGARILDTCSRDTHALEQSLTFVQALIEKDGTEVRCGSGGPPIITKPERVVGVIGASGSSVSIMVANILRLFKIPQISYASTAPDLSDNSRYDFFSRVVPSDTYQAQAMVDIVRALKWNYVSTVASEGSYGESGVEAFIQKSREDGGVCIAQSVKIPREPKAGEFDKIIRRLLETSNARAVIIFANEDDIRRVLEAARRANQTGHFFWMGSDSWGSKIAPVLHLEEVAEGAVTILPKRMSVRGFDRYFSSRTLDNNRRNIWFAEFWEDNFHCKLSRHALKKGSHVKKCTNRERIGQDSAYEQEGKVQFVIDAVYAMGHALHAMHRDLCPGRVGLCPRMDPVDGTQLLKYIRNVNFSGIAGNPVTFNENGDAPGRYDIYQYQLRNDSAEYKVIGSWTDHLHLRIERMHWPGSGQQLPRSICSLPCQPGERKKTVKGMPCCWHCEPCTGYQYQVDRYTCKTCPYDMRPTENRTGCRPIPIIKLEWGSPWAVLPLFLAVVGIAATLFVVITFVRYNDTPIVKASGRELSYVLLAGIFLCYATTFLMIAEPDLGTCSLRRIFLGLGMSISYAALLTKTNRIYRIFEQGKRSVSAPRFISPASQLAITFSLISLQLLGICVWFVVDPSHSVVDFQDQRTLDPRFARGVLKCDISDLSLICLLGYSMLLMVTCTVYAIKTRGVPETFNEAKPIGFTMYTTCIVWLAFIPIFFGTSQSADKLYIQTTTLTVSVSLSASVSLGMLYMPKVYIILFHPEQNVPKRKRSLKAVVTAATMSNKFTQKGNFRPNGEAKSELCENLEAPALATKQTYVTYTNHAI

Compound | melting point [°C] | EC50 (human mGluR4) [µM]
Fc1cnc(Nc2nc3c(s2)CCN(Cc2[nH]ncc2Br)c2n[nH]cc2-3)nc1 [Compound 1-57, 6-((4-Bromo-1H-pyrazol-5-yl)methyl)-N-(5-fluoropyrimidin-2-yl)-4,5,6,8-tetrahydropyrazolo[3,4-b]thiazolo[4,5-d]azepin-2-amine] |  | 1 to 10
Cc1ccccc1CN1CCc2sc(Nc3ncc(F)cn3)nc2-c2cn[nH]c21 [Compound 1-59, N-(5-Fluoropyrimidin-2-yl)-6-(2-methylbenzyl)-4,5,6,7-tetrahydropyrazolo[3,4-b]thiazolo[4,5-d]azepin-2-amine] |  | 1 to 10
Fc1cnc(Nc2nc3c(s2)CCN(Cc2ncccc2Cl)c2[nH]ncc2-3)nc1 [Compound 1-64, 6-((3-Chloropyridin-2-yl)methyl)-N-(5-fluoropyrimidin-2-yl)-4,5,6,7-tetrahydropyrazolo[3,4-b]thiazolo[4,5-d]azepin-2-amine] |  | 0.1 to 1
Fc1cnc(Nc2nc3c(s2)CCN(CCc2ccccc2)c2[nH]ncc2-3)nc1 [Compound 1-65, N-(5-Fluoropyrimidin-2-yl)-6-phenethyl-4,5,6,7-tetrahydropyrazolo[3,4-b]thiazolo[4,5-d]azepin-2-amine] |  | 0.1 to 1
COCCN1CCc2sc(Nc3nc(C)ccc3F)nc2-c2cn[nH]c21 [Compound 1-66, N-(3-Fluoro-6-methylpyridin-2-yl)-6-(2-methoxyethyl)-4,5,6,7-tetrahydropyrazolo[3,4-b]thiazolo[4,5-d]azepin-2-amine] |  | 0.1 to 1
Fc1cnc(Nc2nc3c(s2)CCN(Cc2cccc(Cl)c2)c2[nH]ncc2-3)nc1 [Compound 1-67, 6-(3-Chlorobenzyl)-N-(5-fluoropyrimidin-2-yl)-4,5,6,7-tetrahydropyrazolo[3,4-b]thiazolo[4,5-d]azepin-2-amine] |  | 0.1 to 1
Fc1cnc(Nc2nc3c(s2)CCN(Cc2ccc(C(F)(F)F)cc2)c2[nH]ncc2-3)nc1 [Compound 1-69, N-(5-Fluoropyrimidin-2-yl)-6-(4-(trifluoromethyl)benzyl)-4,5,6,7-tetrahydropyrazolo[3,4-b]thiazolo[4,5-d]azepin-2-amine] |  | 0.1 to 1
Cc1cccc(CN2CCc3sc(Nc4ncc(F)cn4)nc3-c3cn[nH]c32)n1 [Compound 1-70, N-(5-Fluoropyrimidin-2-yl)-6-((6-methylpyridin-2-yl)methyl)-4,5,6,7-tetrahydropyrazolo[3,4-b]thiazolo[4,5-d]azepin-2-amine] |  | 0.1 to 1
Fc1cnc(Nc2nc3c(s2)CCN(CCc2ccccn2)c2[nH]ncc2-3)nc1 [Compound 1-71, N-(5-Fluoropyrimidin-2-yl)-6-(2-(pyridin-2-yl)ethyl)-4,5,6,7-tetrahydropyrazolo[3,4-b]thiazolo[4,5-d]azepin-2-amine] |  | 1 to 10
Fc1cnc(Nc2nc3c(s2)CCN(CC2CCNCC2)c2[nH]ncc2-3)nc1 [Compound 1-78, N-(5-Fluoropyrimidin-2-yl)-6-(piperidin-4-ylmethyl)-4,5,6,7-tetrahydropyrazolo[3,4-b]thiazolo[4,5-d]azepin-2-amine] |  | 1 to 10
Fc1cnc(Nc2nc3c(s2)CCN(Cc2ncc(Cl)s2)c2[nH]ncc2-3)nc1 [Compound 1-79, 6-((5-Chlorothiazol-2-yl)methyl)-N-(5-fluoropyrimidin-2-yl)-4,5,6,7-tetrahydropyrazolo[3,4-b]thiazolo[4,5-d]azepin-2-amine] |  | 0.1 to 1
Cn1cnc(CN2CCc3sc(Nc4ncc(F)cn4)nc3-c3cn[nH]c32)c1 [Compound 1-80, N-(5-Fluoropyrimidin-2-yl)-6-((1-methyl-1H-imidazol-4-yl)methyl)-4,5,6,7-tetrahydropyrazolo[3,4-b]thiazolo[4,5-d]azepin-2-amine] |  | 0.1 to 1
Fc1cnc(Nc2nc3c(s2)CCN(C2CCC2)c2[nH]ncc2-3)nc1 [Compound 1-82, 6-Cyclobutyl-N-(5-fluoropyrimidin-2-yl)-4,5,6,7-tetrahydropyrazolo[3,4-b]thiazolo[4,5-d]azepin-2-amine] |  | 1 to 10
COCCN1CCc2sc(Nc3cccc(CF)n3)nc2-c2cn[nH]c21 [Compound 1-83, N-(6-(Fluoromethyl)pyridin-2-yl)-6-(2-methoxyethyl)-4,5,6,7-tetrahydropyrazolo[3,4-b]thiazolo[4,5-d]azepin-2-amine] |  | 0.1 to 1
COCCN1CC(C)c2sc(Nc3ncc(F)cn3)nc2-c2cn[nH]c21 (centres unmarked) [Compound 1-84, N-(5-Fluoropyrimidin-2-yl)-6-(2-methoxyethyl)-4-methyl-4,5,6,7-tetrahydropyrazolo[3,4-b]thiazolo[4,5-d]azepin-2-amine] |  | 0.1 to 1

The next lines start with the values.

melting point [°C] | EC50 (human mGluR4) [µM] | Compound
292 | < 0.1 | Cc1ccnc(Nc2nc3c(s2)CCN(C)c2n[nH]cc2-3)n1 [Compound 1-1, 6-Methyl-N-(4-methylpyrimidin-2-yl)-4,5,6,8-tetrahydropyrazolo[3,4-b]thiazolo[4,5-d]azepin-2-amine]
247 | < 0.1 | Cc1ccnc(Nc2nc3c(s2)CCN(C(C)C)c2n[nH]cc2-3)n1 [Compound 1-5, 6-Isopropyl-N-(4-methylpyrimidin-2-yl)-4,5,6,8-tetrahydropyrazolo[3,4-b]thiazolo[4,5-d]azepin-2-amine]
291 | < 0.1 | Cc1nc(Nc2nc3c(s2)CCN(C)c2n[nH]cc2-3)ns1 [Compound 1-8, 6-Methyl-N-(5-methyl-1,2,4-thiadiazol-3-yl)-4,5,6,8-tetrahydropyrazolo[3,4-b]thiazolo[4,5-d]azepin-2-amine]
 | 0.1 to 1 | Fc1cnc(Nc2nc3c(s2)CCN(Cc2ccc(Cl)cc2)c2[nH]ncc2-3)nc1 [Compound 1-58, 6-(4-Chlorobenzyl)-N-(5-fluoropyrimidin-2-yl)-4,5,6,7-tetrahydropyrazolo[3,4-b]thiazolo[4,5-d]azepin-2-amine]
 | 0.1 to 1 | COc1cccc(CN2CCc3sc(Nc4ncc(F)cn4)nc3-c3cn[nH]c32)c1 [Compound 1-60, N-(5-Fluoropyrimidin-2-yl)-6-(3-methoxybenzyl)-4,5,6,7-tetrahydropyrazolo[3,4-b]thiazolo[4,5-d]azepin-2-amine]
 | < 0.1 | Fc1ccc(CN2CCc3sc(Nc4ncc(F)cn4)nc3-c3cn[nH]c32)nc1 [Compound 1-61, 6-((5-Fluoropyridin-2-yl)methyl)-N-(5-fluoropyrimidin-2-yl)-4,5,6,7-tetrahydropyrazolo[3,4-b]thiazolo[4,5-d]azepin-2-amine]
 | < 0.1 | Fc1cnc(Nc2nc3c(s2)CCN(Cc2ccc(C(F)(F)F)cn2)c2[nH]ncc2-3)nc1 [Compound 1-62, N-(5-Fluoropyrimidin-2-yl)-6-((5-(trifluoromethyl)pyridin-2-yl)methyl)-4,5,6,7-tetrahydropyrazolo[3,4-b]thiazolo[4,5-d]azepin-2-amine]
 | < 0.1 | Cc1ccnc(CN2CCc3nc(Nc4ncc(F)cn4)sc3-c3cn[nH]c32)c1 [Compound 1-63]
 | < 0.1 | N#Cc1ccc(CN2CCc3sc(Nc4ncc(F)cn4)nc3-c3cn[nH]c32)cc1 [Compound 1-68, 4-((2-(5-Fluoropyrimidin-2-ylamino)-4,5-dihydropyrazolo[3,4-b]thiazolo[4,5-d]azepin-6(7H)-yl)methyl)benzonitrile]
 | < 0.1 | COc1ccc(CN2CCc3sc(Nc4ncc(F)cn4)nc3-c3cn[nH]c32)nc1 [Compound 1-77, N-(5-Fluoropyrimidin-2-yl)-6-((5-methoxypyridin-2-yl)methyl)-4,5,6,7-tetrahydropyrazolo[3,4-b]thiazolo[4,5-d]azepin-2-amine]
 | < 0.1 | CC(c1ccc(Cl)cn1)N1CCc2sc(Nc3ncc(F)cn3)nc2-c2cn[nH]c21 (centres unmarked) [Compound 1-81, 6-(1-(5-Chloropyridin-2-yl)ethyl)-N-(5-fluoropyrimidin-2-yl)-4,5,6,7-tetrahydropyrazolo[3,4-b]thiazolo[4,5-d]azepin-2-amine]
